Source: patent US20220062258A1, “Heterocyclic derivatives” (Merck Patent GmbH, priority 2019, published 2022)

Target: MetAP-2 (Homo sapiens, UniProt P50579)
Test: Degradation of MetAP-2 in HCT116 cells (Western blot, MetAp2/GAPDH signal)
Assay type: cell-based
Set-up: endogenous in cells; host or cells: HCT116
Details: for Signal MetAp2/GAPDH normalized to untreated (DMSO): 24 hrs, HTC116 cells, <1 means degradation; for reduction of MetAP-2 protein: after 24 h
Experimental: See scans below. […] The initial MetAP-2 degradation results were obtained after 24 h incubation of the compounds in three different concentrations (0.1; 1; 10 μM), cell lysis, SDS-PAGE separation, blotting and antibody aided detection.
Comparison of MetAP2 protein levels in HTC116 cells after compound treatments at different concentrations and time points. As control, DMSO was used and its values set as “1”. MetAp2 values <1 means degradation.
2. Exemplary Testing of the Compound
HCT116 cells were sown in 6-well plates. Pipette 1 mL fresh medium to every well and incubate for at least 1 h (37° C., 5% CO2, 95% rH).
Harvest and count cells in Vi-Cell. Equinr. 70198475 Adjust cell concentration to 0.35e^6 cells/mL and add 1 mL of cell suspension (total 0,35e^6 cells/well).
Incubate cells for 24 hours (37° C., 5% CO2, 95% rH)
HCT116: 24 h: ˜50% confluent before treatment
Compounds will be thawed the first time, stock: 10 mM; final concentration: 10 μM & 1 μM & 0.1 μM
Treatment with DMSO based solution with Digital Dispenser: HCT116 platte 2A1.jpg_meta.xml • create new dispensing protocol for compound • apply name of test compound and its stock concentration (in mM) for testing • 3×1:10 dilution series • final 0.3% DMSO, DMSO normalization for every well • shaking after compound/DMSO addition
Incubate cells for further 24 hours (37° C., 5% C02, 95% rH)
HCT116: 70-80% confluent before lysis • after incubation cells were lysed with RIPA lysis buffer including Halt™
all steps performed on ice or at 4° C. • aspirate supernatant from cells • wash cells twice with 2.0 mL ice cold PBS buffer • aspirate supernatant from cells after each washing step • lyse cells with 100 μL Ripa lysis buffer per well • scrape cells with cell scraper and transfer lysates to Eppendorf Cups • incubate for 15 min on ice • centrifuge […] at 13000×g and 4° C. • transfer supernatants to fresh Eppendorf cups • removal of 20 μL lysate for BCA assay • aliquot and freeze at −20° C.
Determination of protein concentration of lysates with BCA Protein Assay Kit. BSA supplied with the kit is 2 mg/mL.
Dilute the standard (Stock BSA concentration=2 mg/mL) in a 96 well plate: Samples were run 1:4. Dilute in lysing buffer, lysing buffer alone was run to determine the background from detergents in the assay.
BCA reagent: Dilute Reagent A and Reagent B in a 1:50 ratio. To 9.8 mL A add 200 μL B.
Assay Procedure: Pipette 5 μL/well of standard or samples to 96 wells (see plate layout). Samples were run in duplicate. Blanks=5 μL/well PBS or 5 μL/well lysing buffer. Add 100 μL/well of the prepared BCA reagent. Tap plate to mix or shake for 1-2 min on the Eppendorf mixer. Incubate at 37° C. for 30 min.
Read the OD at 562 nm. Plate was read on EnVision 2104 Multilabel Reader (Perkin Elmer, Equipment Number 70160330) last verification of instrument 17.08.2017 (once a year) (A25/531). AEH181012_BCA.csv
In EXCEL the duplicates were averaged and the average background PBS was subtracted for the standard curve.
A trend line was created, the intercept (b) was set at 0. The R^2 should be >0.950 for acceptable results. The lysate buffer blank was subtracted from the test values and the averaged, background-corrected O.D. values were used with the equation to calculate mg/ml and then were corrected for the dilution factor for the final mg/mL value. Only results from OD values within the range of the standard curve are acceptable. Values outside of the standard curve range are ignored. BCA AEH00350 Berechnung.xlsx
6. Sample Calculation and Preparation • thaw lysates of AEH00350 on ice • calculate sample volume for Western Blot loading 10 μg total protein/13 μL per slot: • dilute samples with lysis buffer and 10× reducing agent & 4×LDS buffer to 10 μg. • heat them at 70° C. for 10 min and 1000 rmp
7. […]

Sequence of MetAP-2 (P50579 whole entry): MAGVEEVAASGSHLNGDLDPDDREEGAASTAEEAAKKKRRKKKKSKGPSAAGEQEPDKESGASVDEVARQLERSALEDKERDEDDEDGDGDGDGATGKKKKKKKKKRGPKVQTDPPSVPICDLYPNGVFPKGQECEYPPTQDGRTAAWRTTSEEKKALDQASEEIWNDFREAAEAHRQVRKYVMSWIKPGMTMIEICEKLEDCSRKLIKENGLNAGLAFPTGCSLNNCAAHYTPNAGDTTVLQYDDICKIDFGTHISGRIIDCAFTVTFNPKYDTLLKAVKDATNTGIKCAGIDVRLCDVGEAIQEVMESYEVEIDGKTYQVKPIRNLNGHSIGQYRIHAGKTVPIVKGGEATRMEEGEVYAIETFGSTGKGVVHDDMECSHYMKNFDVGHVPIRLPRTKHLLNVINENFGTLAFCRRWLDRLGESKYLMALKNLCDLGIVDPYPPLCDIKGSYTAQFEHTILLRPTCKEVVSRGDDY

Signal MetAp2/GAPDH normalized to untreated (DMSO) (0.1 μM)	reduction of MetAP-2 protein (0.1 μM) [%]	Signal MetAp2/GAPDH normalized to untreated (DMSO) (1 μM)	Signal MetAp2/GAPDH normalized to untreated (DMSO) (10 μM)	reduction of MetAP-2 protein (10 μM) [%]	Structure (SMILES)
0.7	30	0.6	0.3	70	O=C1CCC(N2C(=O)c3cccc(NCCOCCOCCOCCOCCOCCNC(=O)c4cc5cc(N6CCC(O)(C(=O)NCc7cc(F)cc(F)c7)C6=O)ccc5[nH]4)c3C2=O)C(=O)N1 (stereo not drawn) [Compound A1, 5-[3-[(3,5-difluorophenyl)methylcarbamoyl]-3-hydroxy-2-oxo-pyrrolidin-1-yl]-N-[2-[2-[2-[2-[2-[2-[[2-(2,6-dioxo-3-piperidyl)-1,3-dioxo-isoindolin-4-yl]amino]ethoxy]ethoxy]ethoxy]ethoxy]ethoxy]ethyl]-1H-indole-2-carboxamide]
1.2	–	1.0	0.6	40	O=C1CCC(N2C(=O)c3ccc(NCCOCCOCCOCCOCCNC(=O)c4cc5cc(N6CCC(O)(C(=O)NCc7cc(F)cc(F)c7)C6=O)ccc5[nH]4)cc3C2=O)C(=O)N1 (stereo not drawn) [Compound A2, 5-[3-[(3,5-difluorophenyl)methylcarbamoyl]-3-hydroxy-2-oxo-pyrrolidin-1-yl]-N-[2-[2-[2-[2-[2-[[2-(2,6-dioxo-3-piperidyl)-1,3-dioxo-isoindolin-5-yl]amino]-ethoxy]ethoxy]ethoxy]ethoxy]ethyl]-1H-indole-2-carboxamide]
